Experimental data reported in US12454550B2, “Compositions and methods for bioorthogonal surface coating” (Rutgers, The State University of New Jersey, priority 2021, dated 2025).
In brackets after ≈: the same amount, converted by molar mass. Like-named read-outs stand apart in the source and are kept apart here.

What was measured:
[1] = Michaelis-Menten kinetics of native and TCO-conjugated ALP (UV-Vis, 405 nm); format: biochemical; details: 5 nM enzyme, p-NPP in TBS 8.5, room temperature
Procedure: Both assays produce an increase in absorbance at 405 nm, the evolution of which at room temperature was measured on a microplate reader (SpectraMax iD3) over 1 hour. […] These trials were omitted from data analysis. Velocities were estimated by linear regression, and Michaelis-Menten parameters were calculated using both Lineweaver-Burk plots and non-linear least squares regression. R-squared values for all regressions were above 0.95 with the vast majority being above 0.98.

[2] = Stability of grafted enzymes after repeated use; format: biochemical; details: enzymes grafted on DOPA-Tet coated tubes, repeated substrate and buffer incubations with washes
Procedure: Eight 0.2 mL microcentrifuge tubes were coated with 50 μL of 10 mM DOPA-Tet. The tubes were washed thoroughly with TBS (pH 7.5). Three tubes each were grafted with 50 μL of either 0.1 mM ALP-TCO or 0.1 mM GOx-TCO and 0.1 mM HRP-TCO. The two remaining coated tubes were not grafted with any enzymes. The tubes were washed thoroughly with TBS (pH 7.5). 25 μL of 1 mg/mL p-NPP in TBS (pH 8.5) was added to the ALP-grafted tubes and 25 μL 1 mM ABTS and 1 mM D-glucose in PBS (pH 7.4) was added to the GOX/HRP grafted tubes. Each substrate solution was also added to one of the tubes that was not grafted (for controls). […] Absorbance at 405 nm was measured on a spectrophotometer (Thermo Scientific NanoDropOneC). All tubes were then thoroughly washed with TBS (pH 7.5). Then TBS (pH 8.5) was added to the ALP-grafted tubes and PBS (pH 7.4) was added to the GOX/HRP grafted tubes. Each buffer solution was also added to one of the tubes that was not grafted. […] The buffer solutions were then removed from the tubes. This process of incubating with substrate and then buffer solutions was repeated for all tubes 9 more times, for a total of 10 cycles.

[3] = Colorimetric assay using ALP on DOPA-Tet coated microcentrifuge tubes; format: biochemical; details: tubes coated with 10 mM DOPA-Tet, treated with enzyme and washed; 1 mg/mL p-NPP, 1 hour, room temperature
Procedure: For the colorimetric assay using ALP, TBS was chosen as the buffer for washing and testing, because the high concentration of phosphate in PBS could affect the phosphatase activity of ALP. TCO-conjugated ALP (ALP-TCO) was prepared as described elsewhere herein. 0.2 mL microcentrifuge tubes (Bio-Rad Laboratories) were coated with 10 mM DOPA-Tet. The tubes were washed thoroughly with TBS 7.5 and sonicated to remove any loose aggregates. The tubes were grafted with either 0.2 mM ALP-TCO or 0.2 mM ALP, both in TBS 7.5. 50 μL of 1 mg/mL p-NPP in TBS 8.5 was added to each tube and incubated at room temperature for 1 hour. Absorbance at 405 nm was measured on a spectrophotometer (NanoDrop One). Three replicates for each grafted molecule, ALP-TCO or ALP, were prepared and measured.

[4] = test system: S. aureus; test: Minimum Inhibitory Concentration (MIC) assay; format: cell-based; details: Staphylococcus aureus; in solution, 37° C., 18 to 24 h, n=3
Procedure: A glycerol stock of S. aureus was struck on a tryptic soy agar plate and incubated overnight at 37° C. Single colonies were then picked and diluted into tryptic soy broth (TSB) and left to grow overnight. Next, the culture was diluted approximately 40-fold into fresh TSB and grown to mid-log phase (OD600=0.4 to 0.8). 5 mg/mL stock solutions of Vancomycin-TCO and vancomycin in DMSO were serially diluted two-fold with TBS across the wells of a non-treated 96-well plate, with concentrations ranging from 0.0625 to 128 μg/mL. The mid-log phase cultures were diluted to a final concentration of 5×10^5 colony forming units (CFU)/mL in TSB then 50 μL was added to each antimicrobial-containing well, giving a final antimicrobial concentration range of 0.031 to 64 μg/mL. All the plates were covered and incubated at 37° C. for 18 to 24 h. The MIC was defined as the lowest compound concentration at which no bacterial growth was visible (n=3).

[5] = Coating stability in human serum, ALP activity on p-NPP afterwards; format: biochemical; details: DOPA-Tet coated glass vial, 5 days at 37° C. in human serum, then 1 mg/mL p-NPP 1 hour
Procedure: Two additional 4 mL glass vials were prepared and incubated in human serum. Both samples were coated with 10 mM DOPA-Tet, and one was grafted with 0.2 mM ALP-TCO. Both samples were incubated in 1 mL of human serum from clotted whole blood (Millipore-Sigma) for 5 days at 37° C. After incubation, both samples were washed with PBS and 1 mL of 1 mg/mL p-NPP was added. After incubation for 1 hour at room temperature, both samples were imaged and their absorbance at 405 nm was measured on a spectrophotometer (NanoDrop One).

[6] = test system: S. aureus biofilm; test: Biofilm crystal violet assay; format: cell-based; details: coated surfaces incubated with S. aureus for 72 hours
Procedure: 100 μL of freshly prepared coating solution containing 10 mM DOPATet and 2500 U/mL tyrosinase in PBS was added to the wells of a 96-well plate and incubated at room temperature for 6 hours. […] As described elsewhere herein, S. aureus was grown overnight in TSB, then diluted 1:100 in TSB containing 3% glucose. 300 μL of the dilute bacteria was added to the coated well plate, which was then incubated at 37° C. for 72 hours. After incubation the media was decanted, and the plate was air dried for 5 minutes. 200 μL of 0.9% NaCl in sterile water was gently added to the wells, then decanted, and air dried for 5 minutes. The wells were washed twice more with 0.9% NaCl, and after the final drying, 200 μL methanol was added to each well. The plate was left at room temperature for 15 minutes, then the methanol was decanted and the plate air dried for 5 minutes. 100 μL of 3% crystal violet in sterile water was added to the wells and incubated at room temperature for 20 minutes. The dye was decanted, and the plate air dried. The wells were washed three times with 0.9% NaCl as above. After the final air drying, 150 μL of methanol was added to the wells, and mixed to allow for dissolution of the crystal violet. The dye solution was then decanted and diluted 1:10 in methanol, then the absorbance at 590 nm was recorded.

[7] = Coating stability at various pH; format: physicochemical; details: coated glass vials, 5 days at 37° C.
Procedure: Six 4 mL glass vials (VWR International) were coated with 10 mM DOPA-Tet and incubated for 5 days at 37° C. in 1 mL of either 50 mM MES pH 4.5 (Millipore-Sigma), 100 mM IVIES pH 6.0, PBS, TBS 8.5, 100 mM NaHCO3 pH 9.5 (Millipore-Sigma) or 10% DMSO (Millipore-Sigma) in PBS. After incubation, samples were rinsed with Milli-Q water, dried, and imaged.

[8] = Colorimetric assay using GOx/HRP on DOPA-Tet coated microcentrifuge tubes; format: biochemical; details: tubes coated with 10 mM DOPA-Tet, treated with enzymes and washed; 1 mM D-glucose and 1 mM ABTS, 1 hour
Procedure: TCO-conjugated GOx (GOx-TCO) and HRP (HRP-TCO) were prepared as described above. 0.2 mL microcentrifuge tubes were coated with 10 mM DOPA-Tet. The tubes were washed with PBS and sonicated to help remove any loose aggregates. The tubes were grafted with either 0.2 mM GOx-TCO and 0.2 mM HRP-TCO, or 0.2 mM GOx and 0.2 mM HRP. […] Absorbance at 405 nm was measured on a spectrophotometer (NanoDrop One). Three replicates of each set of enzymes, TCO-conjugated or native, were prepared and measured.

[9] = test system: S. aureus; test: Planktonic bacterial growth inhibition at the surface (PrestoBlue); format: cell-based; details: coated 96-well plate, incubated overnight, resazurin readout
Procedure: The wells of a non-treated clear 96 well culture plate were either left uncoated or coated with 10 mM DOPA-Tet and then incubated with either vancomycin-TCO, vancomycin, or PBS. […] 100 μL of culture was added to the wells and the plate was covered and incubated at 37° C. for 18 hours, after which 10 μL of PrestoBlue™ was added to each well. After 1 hour incubation, the media was transferred to clean wells and absorbance at 570 nm was recorded using a plate reader.

[10] = test system: S. aureus biofilm; test: Biofilm microscopy (PI/SYTO 9, CLSM); format: cell-based; details: coated microscopy dishes, PI/SYTO 9 staining
Procedure: 200 μL of freshly prepared coating solution containing 10 mM DOPA-Tet and 2500 U/mL tyrosinase in PBS was added to a glass bottom culture dush. The dish was incubated at room temperature for 6 hours, during which a coating was formed. […] S. aureus was grown overnight in TSB, then diluted 1:100 in TSB containing 3% glucose. 300 μL of the dilute bacteria was added to the microscope dishes, which were then placed in a 37° C. incubator. The samples were incubated for 72 hours, with the media being topped up every day to account for evaporation. The media was decanted and then the dishes were washed with 200 μL of 0.9% NaCl, followed by a 1-hour incubation at room temperature with 250 μL of TSB containing Syto9 (10 μM) and PI (10 μM). The dyes were then decanted and the samples were washed again with saline. Finally, 150 μL of HBSS was added, and the dishes were imaged on a Leica SP8 confocal microscope.

| Compound | Km ([1]; Lineweaver-Burk plots, read-out: Km by LB) [µM] | Km ([1]; non-linear least squares regression, read-out: Km by nls) [µM] | loss of activity on repeated use (absorbance at 405 nm) [2] | activity (absorbance at 405 nm) [3] [OD] | MIC [4] [µg/mL] | ALP activity on p-NPP after incubation in human serum [5] | biofilm formation (crystal violet, absorbance at 590 nm) [6] | coating stability ([7]; 10% DMSO in PBS) | coating stability ([7]; buffered from pH 4.5 to 8.5) | coating stability ([7]; pH 9.5) | activity (absorbance at 405 nm) [8] [OD] | growth of S. aureus (planktonic) [9] | biofilm formation (CLSM) [10] |
| --- | --- | --- | --- | --- | --- | --- | --- | --- | --- | --- | --- | --- | --- |
| ALP: alkaline phosphatase, native enzyme (SEQ ID NO:2) | 281 | 207 | little loss of activity over 10 cycles | 1.66 | – | – | – | – | – | – | – | – | – |
| CN[C@H](CC(C)C)C(=O)N[C@H]1C(=O)N[C@@H](CC(N)=O)C(=O)N[C@H]2C(=O)N[C@H]3C(=O)N[C@H](C(=O)N[C@H](C(=O)NCCOCCOCCOCCOCCOCCOCCOCCOCCNC(=O)OC4CC/C=C/CCC4)c4cc(O)cc(O)c4-c4cc3ccc4O)[C@H](O)c3ccc(c(Cl)c3)Oc3cc2cc(c3O[C@@H]2O[C@H](CO)[C@@H](O)[C@H](O)[C@H]2O[C@H]2C[C@](C)(N)[C@H](O)[C@H](C)O2)Oc2ccc(cc2Cl)[C@H]1O (some centres unmarked) [vancomycin-TCO] | – | – | – | – | 16 (≈ 8.02 µM) | – | – | – | – | – | – | – | – |
| Cc1nnc(-c2ccc(OCCOCCOCCOCCNC(=O)C(N)Cc3ccc(O)c(O)c3)cc2)nn1 (racemic) [DOPA-Tet, (±)-2-amino-3-(3,4-dihydroxyphenyl)-N-(2-(2-(2-(2-(4-(6-methyl-1,2,4,5-tetrazin-3-yl)phenoxy)ethoxy)ethoxy)ethoxy)ethyl)propanamide] | – | – | – | 0.05 | – | did not show any visually detectable activity | successfully inhibited biofilm formation | slightly solubilized | No degradation of the coating was observed | delamination and degradation of the coating were observed | −0.07 | not antimicrobial | no biofilm was observed |
